Patent US20210269440A1 (BETTA PHARMACEUTICALS CO., LTD, priority 2018, published 2021)

Target: T1, PD-1/PD-L1 protein/protein interaction (Homo sapiens, UniProt Q9NZQ7)
T1 construct: Recombinant human PD-L1 protein (19-238) with a His-tag at the C-terminus; purchased AcroBiosystems PD1-H5229 (PD-L1); PD1-H5257 (PD-1)
Experiment: PD-1/PD-L1 homogenous time-resolved fluorescence (HTRF) binding assay
Experimental: Resolved Fluorescence (HTRF) Binding Assay
The assays were conducted in a standard black 384-well polystyrene plate with a final volume of […]. Inhibitors were first serially diluted in DMSO and then added to the plate wells before the addition of other reaction components. The final concentration of DMSO in the assay was 1%. The assays were carried out at 25° C. in the PBS buffer (pH 7.4) with 0.05% Tween-20 and 0.1% BSA. […] Plates were centrifuged and proteins were preincubated with inhibitors for 40 min. The incubation was followed by the addition of 10 μL of HTRF detection buffer supplemented with Europium cryptate-labeled anti-human IgG (PerkinElmer-AD0212) specific for Fc and anti-His antibody conjugated to SureLight®—Allophycocyanin (APC, PerkinElmer-AD0059H). After centrifugation, the plate was incubated at 25° C. for 60 min. […] Final concentrations in the assay were […] PD1, 10 nM PD-L1, 1 nM europium anti-human IgG and 20 nM anti-His-Allophycocyanin. IC50 determination was performed by fitting the curve of percent control activity versus the log of the inhibitor concentration using the GraphPad Prism 5.0 software.

T1 sequence (Q9NZQ7 19-238): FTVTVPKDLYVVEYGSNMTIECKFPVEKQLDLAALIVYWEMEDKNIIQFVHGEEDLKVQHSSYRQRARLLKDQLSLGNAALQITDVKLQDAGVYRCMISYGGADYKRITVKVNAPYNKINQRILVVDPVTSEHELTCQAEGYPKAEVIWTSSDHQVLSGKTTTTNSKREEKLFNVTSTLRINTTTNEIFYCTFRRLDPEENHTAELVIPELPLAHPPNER

| Compound | IC50 [nM] |
| --- | --- |
| Cc1c(Nc2nccc3cc(CNCC(=O)O)cnc23)cccc1-c1ccc(Cl)c(OCCCN2CCOCC2)c1 [Compound 44, ((8-((4′-chloro-2-methyl-3′-(3-morpholinopropoxy)-[1,1′-biphenyl]-3-yl)amino)-1,7-naphthyridin-3-yl)methyl)glycine] | < 2 |
| Cc1c(Nc2nccc3cc(CNCC(=O)O)cnc23)cccc1-c1cccc(OCCCN2CCOCC2)c1Cl [Compound 45, ((8-((2′-chloro-2-methyl-3′-(3-morpholinopropoxy)-[1,1′-biphenyl]-3-yl)amino)-1,7-naphthyridin-3-yl)methyl)glycine] | < 2 |
| Cc1c(Nc2nccc3cc(CNCC(=O)O)cnc23)cccc1-c1cncc(OCCCN2CCOCC2)c1C [Compound 46, ((8-((2-methyl-3-(4-methyl-5-(3-morpholinopropoxy)pyridin-3-yl)phenyl)amino)-1,7-naphthyridin-3-yl)methyl)glycine] | 10 to 150 |
| Cc1c(NC(=O)CCN2CCOCC2)cccc1-c1cccc(Nc2nccc3cc(CN4CCCCC4C(=O)O)cnc23)c1C (stereo not shown) [Compound 49, 1-((8-((2,2′-dimethyl-3′-(3-morpholinopropanamido)-[1,1′-biphenyl]-3-yl)amino)-1,7-naphthyridin-3-yl)methyl)piperidine-2-carboxylic acid] | 2 to 10 |
| Cc1c(Nc2nccc3cc(CN4CCCCC4C(=O)O)cnc23)cccc1-c1cccc(N(C)C(=O)CCN2CCOCC2)c1C (stereo not shown) [Compound 50, 1-((8-((2,2′-dimethyl-3′-(N-methyl-3-morpholinopropanamido)-[1,1′-biphenyl]-3-yl)amino)-1,7-naphthyridin-3-yl)methyl)piperidine-2-carboxylic acid] | > 150 |
| Cc1c(NC(=O)NCCNCCO)cccc1-c1cccc(Nc2nccc3cc(CN4CCCCC4C(=O)O)cnc23)c1C (stereo not shown) [Compound 51, 1-((8-((3′-(3-(2-((2-hydroxyethyl)amino)ethyl)ureido)-2,2′-dimethyl-[1,1′-biphenyl]-3-yl)amino)-1,7-naphthyridin-3-yl)methyl)piperidine-2-carboxylic acid] | > 150 |
| Cc1c(NC(=O)NCCN2CCOCC2)cccc1-c1cccc(Nc2nccc3cc(CN4CCCCC4C(=O)O)cnc23)c1C (stereo not shown) [Compound 53, 1-((8-((2,2′-dimethyl-3′-(3-(2-morpholinoethyl)ureido)-[1,1′-biphenyl]-3-yl)amino)-1,7-naphthyridin-3-yl)methyl)piperidine-2-carboxylic acid] | > 150 |
| Cc1c(Nc2nccc3cc(CN4CCCCC4C(=O)O)cnc23)cccc1-c1cccc(OCC2(CN3CCOCC3)CC2)c1C (stereo not shown) [Compound 54, 1-((8-((2,2′-dimethyl-3′-((1-(morpholinomethyl)cyclopropyl)methoxy)-[1,1′-biphenyl]-3-yl)amino)-1,7-naphthyridin-3-yl)methyl)piperidine-2-carboxylic acid] | 2 to 10 |
| Cc1c(Nc2nccc3cc(CN4CCCCC4C(=O)O)cnc23)cccc1-c1cccc2c1CCC2OCCN1CCOCC1 (stereo not shown) [Compound 56, 1-((8-((2-methyl-3-(1-(2-morpholinoethoxy)-2,3-dihydro-1H-inden-4-yl)phenyl)amino)-1,7-naphthyridin-3-yl)methyl)piperidine-2-carboxylic acid] | > 150 |
| Cc1c(Nc2nccc3cc(CN4CCCCC4C(=O)O)cnc23)cccc1-c1ccc(C(F)(F)F)c(OCCCN2CCOCC2)c1 (stereo not shown) [Compound 60, 1-((8-((2-methyl-3′-(3-morpholinopropoxy)-4′-(trifluoromethyl)-[1,1′-biphenyl]-3-yl)amino)-1,7-naphthyridin-3-yl)methyl)piperidine-2-carboxylic acid] | > 150 |

Now from value to molecule:

| IC50 [nM] | Compound |
| --- | --- |
| 2 to 10 | Cc1c(Nc2nccc3cc(CN4CCCCC4C(=O)O)cnc23)cccc1-c1cccc(OCCCN2CCOCC2)c1C#N (stereo not shown) [Compound 39, 1-((8-((2′-cyano-2-methyl-3′-(3-morpholinopropoxy)-[1,1′-biphenyl]-3-yl)amino)-1,7-naphthyridin-3-yl)methyl)piperidine-2-carboxylic acid] |
| 2 to 10 | Cc1c(Nc2nccc3cc(CN4CCCCC4C(=O)O)cnc23)cccc1-c1ccc(F)c(OCCCN2CCOCC2)c1 (stereo not shown) [Compound 40, 1-((8-((4′-fluoro-2-methyl-3′-(3-morpholinopropoxy)-[1,1′-biphenyl]-3-yl)amino)-1,7-naphthyridin-3-yl)methyl)piperidine-2-carboxylic acid] |
| > 150 | Cc1ccc(-c2cccc(Nc3nccc4cc(CN5CCCCC5C(=O)O)cnc34)c2C)c(C)c1OCCCN1CCOCC1 (stereo not shown) [Compound 41, 1-((8-((2,2′,4′-trimethyl-3′-(3-morpholinopropoxy)-[1,1′-biphenyl]-3-yl)amino)-1,7-naphthyridin-3-yl)methyl)piperidine-2-carboxylic acid] |
| 2 to 10 | Cc1ccc(-c2cccc(Nc3nccc4cc(CN5CCCCC5C(=O)O)cnc34)c2C)cc1OCCCN1CCOCC1 (stereo not shown) [Compound 42, 1-((8-((2,4′-dimethyl-3′-(3-morpholinopropoxy)-[1,1′-biphenyl]-3-yl)amino)-1,7-naphthyridin-3-yl)methyl)piperidine-2-carboxylic acid] |
| 2 to 10 | Cc1c(Nc2nccc3cc(CN4CCCCC4C(=O)O)cnc23)cccc1-c1ccc(Cl)c(OCCCN2CCOCC2)c1 (stereo not shown) [Compound 43, 1-((8-((4′-chloro-2-methyl-3′-(3-morpholinopropoxy)-[1,1′-biphenyl]-3-yl)amino)-1,7-naphthyridin-3-yl)methyl)piperidine-2-carboxylic acid] |
| < 2 | Cc1c(COCCN2CCOCC2)cccc1-c1cccc(Nc2nccc3cc(CN4CCCCC4C(=O)O)cnc23)c1C (stereo not shown) [Compound 47, 1-((8-((2,2′-dimethyl-3′-((2-morpholinoethoxy)methyl)-[1,1′-biphenyl]-3-yl)amino)-1,7-naphthyridin-3-yl)methyl)piperidine-2-carboxylic acid] |
| 2 to 10 | Cc1c(NCCCN2CCOCC2)cccc1-c1cccc(Nc2nccc3cc(CN4CCCCC4C(=O)O)cnc23)c1C (stereo not shown) [Compound 48, 1-((8-((2,2′-dimethyl-3′-((3-morpholinopropyl)amino)-[1,1′-biphenyl]-3-yl)amino)-1,7-naphthyridin-3-yl)methyl)piperidine-2-carboxylic acid] |
| > 150 | Cc1c(Nc2nccc3cc(CN4CCCCC4C(=O)O)cnc23)cccc1-c1cccc(N(C)CCCN2CCOCC2)c1C (stereo not shown) [Compound 52, 1-((8-((2,2′-dimethyl-3′-(methyl(3-morpholinopropyl)amino)-[1,1′-biphenyl]-3-yl)amino)-1,7-naphthyridin-3-yl)methyl)piperidine-2-carboxylic acid] |
| 2 to 10 | Cc1c(Nc2nccc3cc(CN4CCCCC4C(=O)O)cnc23)cccc1-c1cccc(OC(C)CCN2CCOCC2)c1C (stereo not shown) [Compound 55, 1-((8-((2,2′-dimethyl-3′-((4-morpholinobutan-2-yl)oxy)-[1,1′-biphenyl]-3-yl)amino)-1,7-naphthyridin-3-yl)methyl)piperidine-2-carboxylic acid] |
| 2 to 10 | Cc1c(/C=C/CCN2CCOCC2)cccc1-c1cccc(Nc2nccc3cc(CN4CCCCC4C(=O)O)cnc23)c1C (stereo not shown) [Compound 57, (E)-1-((8-((2,2′-dimethyl-3′-(4-morpholinobut-1-en-1-yl)-[1,1′-biphenyl]-3-yl)amino)-1,7-naphthyridin-3-yl)methyl)piperidine-2-carboxylic acid] |
| 2 to 10 | Cc1c(CCCCN2CCOCC2)cccc1-c1cccc(Nc2nccc3cc(CN4CCCCC4C(=O)O)cnc23)c1C (stereo not shown) [Compound 58, 1-((8-((2,2′-dimethyl-3′-(4-morpholinobutyl)-[1,1′-biphenyl]-3-yl)amino)-1,7-naphthyridin-3-yl)methyl)piperidine-2-carboxylic acid] |
| 2 to 10 | COc1ccc(-c2cccc(Nc3nccc4cc(CN5CCCCC5C(=O)O)cnc34)c2C)cc1OCCCN1CCOCC1 (stereo not shown) [Compound 59, 1-((8-((4′-methoxy-2-methyl-3′-(3-morpholinopropoxy)-[1,1′-biphenyl]-3-yl)amino)-1,7-naphthyridin-3-yl)methyl)piperidine-2-carboxylic acid] |
